The values that follow come from patent US20170135979A1, “PDE-DELTA INHIBITOR FOR THE TREATMENT OF CANCER” (Macau University of Science and Technology, priority 2015, published 2017).

One test relates to H358 (K-RAS G12C) cells. The experiment in a line: MTT cell viability assay, 72 h. The note with it: Homo sapiens, NCI-H358. The class given is cell-based. On the procedure: (§1) A549 (K-RAS^G12S), H358 (K-RAS^G12C), H2122 (K-RAS^G12C) and CCD19-Lu cells were obtained from the American Type Culture Collection and cultured in an environment of 5% CO2 at 37° C. in RPMI-1640 medium supplemented with 10% fetal bovine serum (FBS), 100 units/mL penicillin, and 100 μg/mL streptomycin.
(§2) 3000 cells were seeded on 96-well plates, cultured overnight for cell adhesion, then treated with DMSO or various concentrations of compound of Formula (VII) for 72 h, at the end of the incubation, each well was added with 10 μL of MTT (5 mg/mL; Sigma), and the plates were incubated for an additional 4 h, then the crystals were dissolved in 100 μL of the resolved solution (10% SDS and 0.1 mM HCL). The absorbance at 570 nm was measured using a microplate reader (Tecan, Morrisville, N.C., USA). The cell viability was calculated relative to untreated controls, with results based on at least three independent experiments. […] The IC50 in CCD19-Lu is more than 20 μM (Table 1).
A general note: Formazan colour is commonly taken as a measure of viable cells.

A further test relates to A549 (K-RAS G12S) cells. The experiment in a line: MTT cell viability assay, 72 h. The class given is cell-based. To be noted: Homo sapiens. On the procedure: as §1, §2
The test system of the next test is H2122 (K-RAS G12C) cells. The experiment in a line: MTT cell viability assay, 72 h. The class given is cell-based. To be noted: Homo sapiens, NCI-H2122. On the procedure: as §1, §2
Test [1] concerns normal lung epithelial cells (CCD19-Lu). The experiment in a line: MTT cell viability assay, 72 h. In kind it is cell-based. The note with it: Homo sapiens, CCD 19Lu. As for the experimental part: as §1, §2
Test [2] relates to A549 cells. The experiment in a line: Colony formation assay. The class given is cell-based. To be noted: 10 days. As for the experimental part:
Still further, the inhibitory effect of the compound of Formula (VII) on the colony formation in A549 cells has been analyzed to provide further evidence that the compound of Formula (VII) inhibits the formation of colonies of cancerous cells to an exceptional degree, too. A549 cells were seeded on a six-well plate at a density of 500 cells per well. […] After 10 days, the colonies were fixed with 4% paraformaldehyde and stained with a 0.5% (0.5% w/v) crystal violet solutions, the number of colonies >50 was counted under a dissecting microscope.

Test [3] has as its system p-C-raf, pErk, pAkt in A549 cells. Kind of test: Western blot of signaling pathways downstream to K-RAS. The class given is cell-based. The note with it: A549, 2.5 μM, 5 μM and 10 μM, compared with untreated cells. On the procedure:
Equal amounts of protein (20-40 μg per lane) were separated with a 10% SDS-PAGE gel, then the separated proteins were transferred to a Nitrocellulose (NC) membrane, which was then exposed to 5% non-fat dry milk in TBS containing 0.1% Tween 20 (0.1% TBST) for 1 hour at room temperature with constant agitation, followed by overnight incubation at 4° C. with primary antibodies, after washing three times by TBST, the membranes were incubated with secondary rabbit or mouse fluorescent antibodies, the signal intensity of the membranes was detected by anLI-COR Odessy scanner (Belfast, Me., USA). All primary antibodies were diluted 1:1000, while their recommended secondary antibodies were diluted 1:10000.

Test [4] deals with A549 cells. The experiment in a line: Annexin V-FITC/PI apoptosis assay by flow cytometry. The class given is cell-based. To be noted: A549, 2.5 μM, 5 μM or 10 μM, 48 h, compared with control group. As for the experimental part:
Apoptosis was measured using the Annexin V-FITC apoptosis detection kit (BD Biosciences, San Jose, Calif., USA), according to the manufacturer protocol. […] Subsequently, cells were trypsinized, washed with PBS and stained with 100 μL binding buffer containing 2 μL Annexin-V FITC and 5 μL propidine iodide (PI) incubated in the dark at room temperature for 15 min, before further addition of 400 μL of 1× Annexin-binding buffer. The stained cells were analyzed quantitatively using a Flow Cytometer (BD Biosciences, San Jose, Calif., USA). Data were analyzed by Flow Jo software.
In general terms: A flow cytometer gives signals particle by particle.

Test [5] deals with active (GTP-bound) K-RAS in A549 cells. The experiment in a line: K-RAS activation (GTP pull down) assay with immunoblotting. The class given is cell-based. On the procedure: Further, a K-RAS activation assay with subsequent immunoblotting has been carried out. […] Cells were lysed in lysis buffer, adjusted the volume of each sample to 1 mL with 1× Assay Lysis Buffer, 40 μL of the Raf1 RBD Agarose bead slurry were added to each sample quickly, follow by incubating the tubes at 4° C. for 1 hour with gentle agitation, beads were washed three times with cold lysis buffer, and bounded protein was resuspended in 40 μL of 2× reducing SDS-PAGE sample buffer and heated at 100° C. for 5 min. The samples were then run by SDS-PAGE followed by immunoblotting. Total amount of RAS being pulled down were compared between the control and treatment groups.
The compound of Formula (VII) inhibited K-RAS binding to GTP in A549 cells.

In test [6] the test system is human pancreatic ductal adenocarcinoma cells. To be noted: in vitro and in vivo; cited from earlier work.

For the compound `CC(C)(C)c1cc2oc3c(c2c(/C=N/NC(=O)c2ccc(O)cc2O)c1O)CCCC3` [compound of Formula (VII)], the IC50 (commonly the midpoint of a concentration-inhibition curve) is 2.4 ± 2.1 µM with H358 (K-RAS G12C) cells, 5.59 ± 1.27 µM in the test on A549 (K-RAS G12S) cells, 3.35 ± 2.74 µM in the test on H2122 (K-RAS G12C) cells and more than 20 µM in [1]. The colony formation capacity result with A549 cells [2] (A549, 1.25 μM, 2.5 μM, 5 μM or 10 μM) is reported as “significantly inhibited”. Besides, the colonies formed result in the test on A549 cells [2] (A549, 10 μM) was “no visible colonies”. For the same compound, the “level of p-C-raf” value in test [3] is “decreased”. Moreover, the “level of pAkt” value in test [3] was “decreased”. Also, the “level of pErk” value in test [3] is “decreased”. Further, in the test on A549 cells [4], the cell apoptosis entry is on record as “induced significant cell apoptosis”. Further, in [5] (A549, 10 μM, 48 h, compared to untreated control), the “amount of K-RAS being pulled down (GTP-bound K-RAS)” value was “caused a decrease”.

On to `c1ccc(Cn2c(-c3ccc(OC[C@H](C4CCNCC4)n4c(-c5ccccc5)nc5ccccc54)cc3)nc3ccccc32)cc1` [Deltarasin, reference compound], for which the “proliferation of human pancreatic ductal adenocarcinoma cells” value in [6] is on record as “strongly suppressed”. Further, the “GTP binding with K-RAS” value in test [5] (A549, 4 μM, positive control) is “suppression”.
